Results taken from patent US12410179B2, “Modulators of TNF alpha activity and uses thereof” (RayThera, Inc., priority 2023, dated 2025).

How the values were obtained:
[1] = system: human induced pluripotent stem cell-derived cardiomyocytes (hiPSC-CMs); conditions: 10 μM
TNFα [2] = molecular target: T1, TNFα (Homo sapiens, UniProt P01375); experiment: HEK-Blue hTNFα reporter assay; assay type: cell-based; set-up: purchased R&D biosystem (R&D Systems) 210-TA-020/CF; conditions: HEK-Blue hTNFα reporter cells; for Emax: read-out: TNFα reporter, Emax
In short: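 Compounds preincubated 1 h at 37 °C with recombinant hTNFα ([…]), then added to HEK293 NF-κB-SEAP reporter cells, 10000 cells/well, 24 h at 37 °C. SEAP read by QUANTI-Blue at OD620; % inhibition versus stimulated and unstimulated controls, IC50 by 4-parameter fit.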

TNFα [3] = molecular target: T1, TNFα; experiment: Human dermal fibroblast cell potency assay (IL-8 HTRF); assay type: cell-based; set-up: purchased R&D biosystem (R&D Systems) 210-TA-020/CF; conditions: human dermal fibroblasts, hTNFα 10 ng/mL, 24 h; for Emax: read-out: HDF_IL-8, Emax; for IC50: read-out: HDF_IL-8, IC50
Procedure: The potency of compounds was examined in Human dermal fibroblast cells (HDF). […] When used for assay, 40 μL of HDF suspension (2000 cell/well) was seeded into each well of 384-well plates (Corning 3764). After overnight culture, replenish fresh culture medium with 5% fetal bovine serum. A serial dilution of work solution of tested compound was made in DMSO with 1000× of final concentration, and 50 nL of compound DMSO solution was transferred into another set of 384-well plates by Echo, and incubated with 10 μL of recombinant hTNFα (R&D biosystem, Cat #210-TA-020/CF) for 1 h at 37° C. The compound/hTNFα mixture was then transferred to the 384-plate containing HDF, and then incubated at 37° C. with 5% CO2 for 24 h. The final concentration of hTNFα is 10 ng/mL.
After incubation, 16 μL of induced cell supernatant was transferred to a new 384-well Optiplate well to mix with 4 μL of IL-8 antibody cocktail (Revvity #62HIL08PEH). After overnight incubation, the plate was read using EnSight™ Multimode Microplate Reader (Perkin Elmer) for HTRF signal.
The percentage of inhibition was calculated by the following formula: % inhibition=(positive control−Sample)/(positive control−negative control)*100
Positive control: HTRF reading of cells with hTNFα stimulation.
Negative control: HTRF reading of cells without hTNFα stimulation.
Sample: HTRF reading of cells with compound at specific concentration and hTNFα stimulation
The % inhibition was plotted against compound concentration in logarithmic scale and the IC50 was rendered using 4-parameter nonlinear regression (GraphPad Prism).

TNFα [4] = molecular target: T1, TNFα; experiment: TNFα human whole blood screening assay (CD11b on granulocytes, zymosan challenge); assay type: cell-based; set-up: a human whole blood assay driven by endogenously expressed TNFα; from tissue; host or cells: human whole blood; conditions: human whole blood IC50 multiplied by unbound fraction from plasma protein binding; read-out: CD11b in hWB, free IC50
Procedure: The compounds according to the Examples were assessed in a human whole blood assay driven by endogenously expressed TNFα by measuring the expression of CD11b on granulocytes in human whole blood challenged with zymosan. A serial diluted compound was pre-incubated with human whole blood for 1 h at 37° C./5% CO2. Zymosan (Invivogen, Tlrl-zyn) was added (final assay concentration […] in a total volume of 100 μl) with thorough mixing and incubated for 3 h at 37° C./5% CO2. The samples were then incubated with 10 μl antibody cocktail containing APC-conjugated anti-human CD45 antibody (Biolegend, cat #304012) and PE-conjugated anti-human CD11b antibody (Biolegend, cat #101208) for 30 min at 4° C. The blood was fixed/lysed for 10-15 min at 37° C. using FACS/lysing solution (BD sciences, cat #558049) and analyzed with CytoFlex S (Beckman Coulter). The number of single cells (SSC-A, SSC—W) positive for CD45 and expressing CD11b was determined using FlowJo software (BD Biosciences). Inhibition of CD11b activation was calculated against DMSO control. […]
A calculated IC50 for the free compound (free IC50) that considers the extent of fraction unbound in blood was determined by multiplying the IC50 generated from the human whole blood screening assay by the unbound fraction, generated from the plasma protein binding assay.

T1 sequence (P01375 77-233 limits assumed): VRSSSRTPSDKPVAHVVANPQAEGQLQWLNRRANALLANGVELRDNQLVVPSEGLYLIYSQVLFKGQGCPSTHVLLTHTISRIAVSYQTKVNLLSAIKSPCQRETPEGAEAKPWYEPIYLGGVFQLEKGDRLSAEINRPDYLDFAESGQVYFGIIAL

| Cardiomyocytes FPDc prolong. [1] [%] | EAD (early afterdepolarization) [1] | Emax (TNFα [2]) [%] | IC50 (TNFα [2]; read-out: TNFα reporter, IC50) [nM] | Emax (TNFα [3]) [%] | IC50 (TNFα [3]) [nM] | IC50 (TNFα [4]) [nM] | IC50 (TNFα [2]; SEAP readout, read-out: IC50 Range) [nM] | SMILES |
| --- | --- | --- | --- | --- | --- | --- | --- | --- |
| > 20 | EAD | 96 | 4.8 | 93 | 6.7 | 9.3 | – | CN1C(=O)c2cccc(OC(F)F)c2[C@H]2C[C@@H]1c1nc3ccc(-c4cnc(C5(N)CCC5)nc4)cc3n12 [Comp. Ex #1, reference compound] |
| – | – | 95 | 4.1 | 97 | 2.8 | 2.1 | < 25 | CN1C(=O)c2cccc(OC(F)F)c2[C@H]2C[C@@H]1c1nn3ccc(-c4cnc(C5(N)CCC5)nc4)cc3c12 [Example 15] |
